Test results: paper PMC10296720, “A Truncated 14-Amino-Acid Myelin Protein-Zero-Targeting Peptide for Fluorescence-Guided Nerve-Preserving Surgery” (Biomolecules, 2023)
≈ marks a conversion by molar mass, not a printed value. Read-outs that look alike come from different tables or passages of the source. Where a SMILES comes first, the peptide text is derived from it. The star is where a group is joined. X1 = CC1(C)C(/C=C/C=C/C=C2/N(CCCCS(=O)(=O)O)c3ccc(S(=O)(=O)O)cc3C2(C)C)=[N+](CCCCCC(=O)NCCN2C(=O)CC(*)C2=O)c2ccc(S(=O)(=O)[O-])cc21; X2 = CC1(C)C(=CC=CC=CC2=[N+](CCCCS(=O)(=O)[O-])c3ccc(S(=O)(=O)O)cc3C2(C)C)N(CCCCCC(=O)NCCN2C(=O)CC(*)C2=O)c2ccc(S(=O)(=O)O)cc21

Legend:
Serum binding = assay type: in vitro ADME; conditions: as previously described (refs 27, 31, 36)
Experimental: (§1) Determination of the chemical and photophysical properties (LogP, solubility, serum binding, net charge, and brightness) was performed as previously described.

Solubility = assay type: physicochemical; conditions: as previously described (refs 27, 31, 36)
Experimental: as §1

LogP = assay type: physicochemical; conditions: as previously described (refs 27, 31, 36)
Experimental: as §1

P0 = target: T1, P0 (Rattus norvegicus, UniProt P06907); experiment: P0 affinity (KD) via flow cytometry saturation binding; conditions: saturation binding on P0-expressing RT4 D6P2T Schwannoma cells, flow cytometry (APC-A), 0–2000 nM, triplicate, repeated at least two times per tracer
T1 construct: performed using P0-expressing RT4 D6P2T cells; host or cells: RT4 D6P2T myelinating Schwannoma cells
T1 sequence (P06907 30-248): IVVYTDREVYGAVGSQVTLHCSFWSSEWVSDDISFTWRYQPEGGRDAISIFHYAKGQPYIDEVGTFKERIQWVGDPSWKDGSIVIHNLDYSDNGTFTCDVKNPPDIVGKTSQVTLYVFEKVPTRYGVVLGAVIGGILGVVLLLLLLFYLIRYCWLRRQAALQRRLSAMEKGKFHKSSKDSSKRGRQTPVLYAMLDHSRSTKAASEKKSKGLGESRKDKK
Experimental: The mean fluorescence intensity values per sample were measured using an LSRII flow cytometer (BD Biosciences, Franklin Lakes, NJ, USA) with APC-A settings (635 nm laser and 750 nm long-pass filter) for a Cy5 dye. […] For the affinity assessment, fluorescence was measured using a FACSCanto II flow cytometry device (BD Biosciences, Franklin Lakes, NJ, USA) in the APC-A channel, and the accompanying FlowJo^TM v5 software (BD Biosciences, Franklin Lakes, NJ, USA) was used for further analysis.
Saturation binding experiments were performed for each of the fluorescent peptides in a concentration range of 0–2000 nM. All measurements were performed in triplicate, and experiments were repeated at least two times per tracer. The fluorescence was measured using a FACSCanto II flow cytometry device (BD Biosciences) in the APC-A channel, and the accompanying FlowJo software was used for further analysis. KD assessment was performed using the normalized geometric means, which were fitted with equations in GraphPad Prism 5 software.
A statistical evaluation to compare the affinity (KD) was performed using unpaired Student’s t-test. Values of p < 0.05 were considered significant.

Brightness (in HSA) = assay type: physicochemical, human
Experimental: as §1

Row | fraction unbound (Serum binding) | Solubility (Solubility) | LogP (LogP; read-out: LogP) | Kd (P0) | LogP (LogP) | Solubility (Solubility; listed as Cy5P0_112–125) | SMILES | increase in brightness versus lead Cy5-P0_101–125 (Brightness (in HSA); in HSA) | Brightness (in HSA) (Brightness (in HSA); in human serum albumin)
1 | 0.31 | – | – | 83 nM | −1.34 + 0.03 | – | CC(=O)NCC(=O)N[C@@H](CCCCN)C(=O)N[C@H](C(=O)N[C@@H](CO)C(=O)N[C@@H](CCC(N)=O)C(=O)N[C@H](C(=O)N[C@H](C(=O)N[C@@H](CC(C)C)C(=O)N[C@@H](Cc1ccc(O)cc1)C(=O)N[C@H](C(=O)N[C@@H](Cc1ccccc1)C(=O)N[C@@H](CCC(=O)O)C(=O)N[C@@H](CCCCN)C(=O)N[C@H](C(=O)N1CCC[C@H]1C(=O)N[C@H](C(=O)N[C@@H](CCCNC(=N)N)C(=O)N[C@@H](Cc1ccc(O)cc1)C(=O)N[C@@H](CSC1CC(=O)N(CCNC(=O)CCCCC[N+]2=C(/C=C/C=C/C=C3/N(CCCCS(=O)(=O)O)c4ccc(S(=O)(=O)O)cc4C3(C)C)C(C)(C)c3cc(S(=O)(=O)[O-])ccc32)C1=O)C(N)=O)[C@@H](C)O)C(C)C)C(C)C)[C@@H](C)O)C(C)C)[C@@H](C)O (some centres unmarked) [Cy5-P0_108–125] (Ac-GKTSQVTLYVFEKVPTRYC(X1)-NH2) | – | –
2 | – | 71 µM (≈ 197 µg/mL) | – | 69 nM | −1.08 + 0.03 | relatively low solubility | CC(=O)N[C@@H](CCC(N)=O)C(=O)N[C@H](C(=O)N[C@H](C(=O)N[C@@H](CC(C)C)C(=O)N[C@@H](Cc1ccc(O)cc1)C(=O)N[C@H](C(=O)N[C@@H](Cc1ccccc1)C(=O)N[C@@H](CCC(=O)O)C(=O)N[C@@H](CCCCN)C(=O)N[C@H](C(=O)N1CCC[C@H]1C(=O)N[C@H](C(=O)N[C@@H](CCCNC(=N)N)C(=O)N[C@@H](Cc1ccc(O)cc1)C(=O)N[C@@H](CSC1CC(=O)N(CCNC(=O)CCCCC[N+]2=C(/C=C/C=C/C=C3/N(CCCCS(=O)(=O)O)c4ccc(S(=O)(=O)O)cc4C3(C)C)C(C)(C)c3cc(S(=O)(=O)[O-])ccc32)C1=O)C(N)=O)[C@@H](C)O)C(C)C)C(C)C)[C@@H](C)O)C(C)C (some centres unmarked) [Cy5-P0_112–125] (Ac-QVTLYVFEKVPTRYC(X1)-NH2) | – | –
3 | – | 150 µM (≈ 350 µg/mL) | – | 147 ± 80 nM | −1.58 + 0.03 | – | CC(=O)N[C@@H](Cc1ccc(O)cc1)C(=O)N[C@H](C(=O)N[C@@H](Cc1ccccc1)C(=O)N[C@@H](CCC(=O)O)C(=O)N[C@@H](CCCCN)C(=O)N[C@H](C(=O)N1CCC[C@H]1C(=O)N[C@H](C(=O)N[C@@H](CCCNC(=N)N)C(=O)N[C@@H](Cc1ccc(O)cc1)C(=O)N[C@@H](CSC1CC(=O)N(CCNC(=O)CCCCC[N+]2=C(/C=C/C=C/C=C3/N(CCCCS(=O)(=O)O)c4ccc(S(=O)(=O)O)cc4C3(C)C)C(C)(C)c3cc(S(=O)(=O)[O-])ccc32)C1=O)C(N)=O)[C@@H](C)O)C(C)C)C(C)C (some centres unmarked) [Cy5-P0_116–125] (Ac-YVFEKVPTRYC(X1)-NH2) | – | –
4 | 0.29 | 150 µM (≈ 269 µg/mL) | – | – | −1.59 + 0.01 | – | CC(=O)N[C@@H](CCCCN)C(=O)N[C@H](C(=O)N1CCC[C@H]1C(=O)N[C@H](C(=O)N[C@@H](CCCNC(=N)N)C(=O)N[C@@H](Cc1ccc(O)cc1)C(=O)N[C@@H](CSC1CC(=O)N(CCNC(=O)CCCCC[N+]2=C(/C=C/C=C/C=C3/N(CCCCS(=O)(=O)O)c4ccc(S(=O)(=O)O)cc4C3(C)C)C(C)(C)c3cc(S(=O)(=O)[O-])ccc32)C1=O)C(N)=O)[C@@H](C)O)C(C)C (some centres unmarked) [Cy5-P0_120–125] (Ac-KVPTRYC(X1)-NH2) | – | –

Further lines, the molecule ahead of its results:

Row | SMILES | fraction unbound (Serum binding) | Solubility (Solubility) | LogP (LogP; read-out: LogP) | Kd (P0) | LogP (LogP) | Solubility (Solubility; listed as Cy5P0_112–125) | increase in brightness versus lead Cy5-P0_101–125 (Brightness (in HSA); in HSA) | Brightness (in HSA) (Brightness (in HSA); in human serum albumin)
5 | CC[C@H](C)[C@H](NC(=O)[C@H](CC(=O)O)NC(=O)[C@@H]1CCCN1C(=O)[C@@H]1CCCN1C(=O)[C@H](CC(N)=O)NC(=O)[C@H](CCCCN)NC(C)=O)C(=O)N[C@@H](CSC1CC(=O)N(CCNC(=O)CCCCC[N+]2=C(/C=C/C=C/C=C3/N(CCCCS(=O)(=O)O)c4ccc(S(=O)(=O)O)cc4C3(C)C)C(C)(C)c3cc(S(=O)(=O)[O-])ccc32)C1=O)C(N)=O (some centres unmarked) [Cy5-P0_101–106] (Ac-KNPPDIC(X1)-NH2) | 0.53 | >400 µM | -0.95 ± 0.05 | – | – | – | – | –
6 | CC[C@H](C)[C@H](NC(=O)[C@H](CC(=O)O)NC(=O)[C@@H]1CCCN1C(=O)[C@@H]1CCCN1C(=O)[C@H](CC(N)=O)NC(=O)[C@H](CCCCN)NC(C)=O)C(=O)N[C@H](C(=O)NCC(=O)N[C@@H](CCCCN)C(=O)N[C@H](C(=O)N[C@@H](CSC1CC(=O)N(CCNC(=O)CCCCC[N+]2=C(/C=C/C=C/C=C3/N(CCCCS(=O)(=O)O)c4ccc(S(=O)(=O)O)cc4C3(C)C)C(C)(C)c3cc(S(=O)(=O)[O-])ccc32)C1=O)C(N)=O)[C@@H](C)O)C(C)C (some centres unmarked) [Cy5-P0_101–110] (Ac-KNPPDIVGKTC(X1)-NH2) | 0.45 | >400 µM | -0.73 ± 0.12 | > 1000 nM | – | – | – | –
7 | CC[C@H](C)[C@H](NC(=O)[C@H](CC(=O)O)NC(=O)[C@@H]1CCCN1C(=O)[C@@H]1CCCN1C(=O)[C@H](CC(N)=O)NC(=O)[C@H](CCCCN)NC(C)=O)C(=O)N[C@H](C(=O)NCC(=O)N[C@@H](CCCCN)C(=O)N[C@H](C(=O)N[C@@H](CO)C(=O)N[C@@H](CCC(N)=O)C(=O)N[C@H](C(=O)N[C@H](C(=O)N[C@@H](CC(C)C)C(=O)N[C@@H](CSC1CC(=O)N(CCNC(=O)CCCCC[N+]2=C(/C=C/C=C/C=C3/N(CCCCS(=O)(=O)O)c4ccc(S(=O)(=O)O)cc4C3(C)C)C(C)(C)c3cc(S(=O)(=O)[O-])ccc32)C1=O)C(N)=O)[C@@H](C)O)C(C)C)[C@@H](C)O)C(C)C (some centres unmarked) [Cy5-P0_101–115] (Ac-KNPPDIVGKTSQVTLC(X1)-NH2) | 0.4 | >400 µM | -0.8 ± 0.16 | > 1000 nM | – | – | – | –
8 | CC[C@H](C)[C@H](NC(=O)[C@H](CC(=O)O)NC(=O)[C@@H]1CCCN1C(=O)[C@@H]1CCCN1C(=O)[C@H](CC(N)=O)NC(=O)[C@H](CCCCN)NC(C)=O)C(=O)N[C@H](C(=O)NCC(=O)N[C@@H](CCCCN)C(=O)N[C@H](C(=O)N[C@@H](CO)C(=O)N[C@@H](CCC(N)=O)C(=O)N[C@H](C(=O)N[C@H](C(=O)N[C@@H](CC(C)C)C(=O)N[C@@H](Cc1ccc(O)cc1)C(=O)N[C@H](C(=O)N[C@@H](Cc1ccccc1)C(=O)N[C@@H](CCC(=O)O)C(=O)N[C@@H](CCCCN)C(=O)N[C@@H](CSC1CC(=O)N(CCNC(=O)CCCCCN2C(=CC=CC=CC3=[N+](CCCCS(=O)(=O)[O-])c4ccc(S(=O)(=O)O)cc4C3(C)C)C(C)(C)c3cc(S(=O)(=O)O)ccc32)C1=O)C(N)=O)C(C)C)[C@@H](C)O)C(C)C)[C@@H](C)O)C(C)C (some centres unmarked) [Cy5-P0_101–120] (Ac-KNPPDIVGKTSQVTLYVFEKC(X2)-NH2; N-terminus and C-terminus assumed) | 0.34 | 15 µM (≈ 49.4 µg/mL) | -0.99 ± 0.1 | – | – | – | twofold increase in brightness | 137,940
